From patent US5229420A, “Ethereal N-terminal aminodiol amino acid derivatives as anti-hypertensive agents” (G. D. Searle & Co., priority 1991, dated 1993)
Where a SMILES comes first, the peptide text is derived from it. [ ]: non-standard residue; d: D form. The star is where a group is joined. Sta = CC(C)C[C@H](N)[C@@H](O)CC(=O)O; Isovaleryl = CC(C)CC(=O)*

Columns and labels:
[1] = target: T1, human renin (Homo sapiens, UniProt P00797); assay: human renin inhibition test, in vitro (angiotensin I by radioimmunoassay); format: biochemical; conditions: pH 7.4, 37° C., two hours
T1 construct: purchased National Institute for Biological Standards, London
T1 sequence (P00797 67-406): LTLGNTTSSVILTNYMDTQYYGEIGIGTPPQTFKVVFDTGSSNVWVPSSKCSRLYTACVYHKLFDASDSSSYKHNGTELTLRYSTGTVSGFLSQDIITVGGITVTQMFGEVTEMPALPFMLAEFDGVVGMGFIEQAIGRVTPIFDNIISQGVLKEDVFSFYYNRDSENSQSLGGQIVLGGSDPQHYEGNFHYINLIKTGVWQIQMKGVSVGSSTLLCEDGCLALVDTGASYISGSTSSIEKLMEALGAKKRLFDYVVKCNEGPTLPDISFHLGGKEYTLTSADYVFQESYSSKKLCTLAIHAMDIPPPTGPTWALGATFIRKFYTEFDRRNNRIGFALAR
Experimental: Compounds of Formula I were evaluated as inhibitors of human renin in an in vitro assay, as follows: This human renin inhibition test has been previously described in detail [Papaioannou et al., Clinical and Experimental Hypertension, A7(9), 1243-1257 (1985)]. Human renin was obtained from the National Institute for Biological Standards, London. An incubation mixture was prepared containing in total volume of 0.25 mL 100 mM Tris-acetate buffer at pH 7.4, 25×10^-6 Goldblatt units of renin, 0.05 mL of plasma from human volunteers taking oral contraceptives,6.0 mM sodium EDTA, 2.4 mM phenylmethyl sulfonyl fluoride, 1.5 mM 8-hydroxyquinoline, 0.4 mg/mL BSA, and 0.024 mg/mL neomycin sulfate. This mixture was incubated for two hours at 37° C. in the presence or absence of renin inhibitors. The produced angiotensin I was determined by radioimmunoassay (New England Nuclear kit). Test compounds to be assayed were solubilized in DMSO and diluted with 100mM Tris-acetate buffer at pH 7.4 containing 0.5 % bovine serum albumin (BSA) to the appropriate concentration. The final concentration of organic solvent in the reaction mixture was less than 1%. Control incubations at 37° C. were used to correct for effects of organic solvent on renin activity.

[2] = system: Plasma Renin Activity; assay: Oral Effect of Compounds on Plasma Renin Activity in Sodium Depleted Marmoset; format: in vivo, Common marmosets (Callithrix jacchus); conditions: @ 1 h, 3 mg/kg dose
Experimental: The oral activity of compounds of Formula I was determined in vivo in Marmoset monkeys in accordance with the following procedure: Common marmosets (Callithrix jacchus, Charles River) were placed on a modified high protein low sodium diet (Purina, St. Louis, Mo.) for 1 to 2 weeks. On the day of the test an animal was anesthetized with isoflurane and cannulated in the femoral artery and vein for blood pressure monitoring, intravenous saralasin infusion and blood sampling. After allowing the animal to recover from surgery for 2 hr, saralasin was infused at 1 microgram/min for 15 minutes to confirm that the animal's blood pressure was dependent on angiotensin II levels. The marmoset was allowed to stabilize for 30 min after the saralasin infusion. The test compound was administered orally and blood pressure was monitored for 2 hr. Blood samples were taken in K-EDTA for plasma renin activity before, 30 min, and 1 hr after compound administration.

[3] = system: hog renin; conditions: after injection of hog renin into nephrectomized rats; cited from earlier work
[4] = system: renin; conditions: cited from earlier work
[5] = system: pepsin; conditions: cited from earlier work
[6] = system: cathepsin D; conditions: cited from earlier work

| SMILES | IC50 [1] [µM] | % Reduction of Plasma Renin Activity [2] [%] | also measured |
| --- | --- | --- | --- |
| COCCN(C)C(=O)O[C@@H](Cc1ccccc1)C(=O)N[C@@H](Cc1cnc[nH]1)C(=O)N[C@@H](CC1CCCCC1)[C@@H](O)[C@@H](O)CC(C)C [Example 8, O-[N-methyl-N-(2-methoxyethyl)aminocarbonyl]-3-L-phenyllactyl-L-histidineamide of (2S,3R,4S)-2-amino-1-cyclohexyl-3,4-dihydroxy-6-methylheptane] | 0.0012 | 99 | – |
| COCCN(C)C(=O)C[C@@H](CCc1ccccc1)C(=O)NC[C@@H](C)C(=O)N[C@@H](CC1CCCCC1)[C@@H](O)[C@@H](O)CC(C)C [Example 16, 3-(N-methyl-N-(2-methoxyethyl)aminocarbonyl)-2-(R)-2-phenethylpropionyl-α-(R)-methyl-β-alanineamide of (2S,3R,4S)-2-amino-1-cyclohexyl-3,4-dihydroxy-6-methylheptane] | 0.045 | – | – |
| COCCN(C)C(=O)O[C@@H](Cc1ccccc1)C(=O)N[C@@H](CC(C)C)C(=O)N[C@@H](CC1CCCCC1)[C@@H](O)[C@@H](O)CC(C)C [Example 9, O-(N-methyl-N-(2-methoxyethyl)aminocarbonyl)-3-L-phenyllactyl-L-leucineamide of (2S,3R,4S)-2-amino-1-cyclohexyl-3,4-dihydroxy-6-methylheptane] | 0.01 | 79 | – |
| CC(C)CC(=O)N[C@H](C(=O)N[C@H](C(=O)N[C@@H](CC(C)C)[C@@H](O)CC(=O)N[C@@H](C)C(=O)N[C@@H](CC(C)C)[C@@H](O)CC(=O)O)C(C)C)C(C)C [pepstatin] (Isovaleryl-VV[Sta]A[Sta]-OH) | – | – | reduction of blood pressure in vivo [3]: found to reduce blood pressure in vivo; inhibition of renin (in words) [4]: inhibitor of aspartyl proteases such as pepsin, cathepsin D and renin; inhibition of pepsin (in words) [5]: inhibitor of aspartyl proteases such as pepsin; inhibition of cathepsin D (in words) [6]: inhibitor of aspartyl proteases such as pepsin, cathepsin D |
| COCCN(C)C(=O)O[C@@H](Cc1ccccc1)C(=O)NC[C@@H](C)C(=O)N[C@@H](CC1CCCCC1)[C@@H](O)[C@@H](O)CC(C)C [Example 13, O-(N-methyl-N-(2-methoxyethyl)aminocarbonyl)-3-L-phenyllactyl-α-(R)-methyl-β-alanineamide of (2S,3R,4S)-2-amino-1-cyclohexyl-3,4-dihydroxy-6-methylheptane] | 0.062 | – | – |
| CC[C@H](CNC(=O)[C@H](CCc1ccccc1)CC(=O)N(C)CCOC)C(=O)N[C@@H](CC1CCCCC1)[C@@H](O)[C@@H](O)CC(C)C [Example 15, 3-(N-methyl-N-(2-methoxyethyl)aminocarbonyl)-2-(R)-(2-phenylethyl)propionyl-α-(R)-ethyl-β-alanineamide of (2S,3R,4S)-2-amino-1-cyclohexyl-3,4-dihydroxy-6-methylheptane] | – | – | inhibition at 0.05 µM ([1]; @ 5 × 10^-8 M): 17% |
